Test results: ChEMBL document CHEMBL1201862, “PubChem BioAssay data set” (2004)
Activity calls are given as the source filed them.

How the values were obtained:
[1] = M. tuberculosis H37Rv growth inhibitors, H37Rv strain (AID 1626); assay type: functional
[2] = target: T1, Sphingosine 1-phosphate receptor 2 (Homo sapiens, UniProt O95136); test: Dose Response Cell Based Assay for Antagonists of the S1P2 Receptor. [Related pubchem assays: 856, 736 ]; assay type: functional
[3] = target: T1, Sphingosine 1-phosphate receptor 2; test: Dose Response Cell Based Assay for Agonists of the S1P2 Receptor. [Related pubchem assays: 729, 736, 843 ]; assay type: functional
[4] = target: Ephrin type-A receptor 4 (Mus musculus, UniProt Q03137); test: EphA4 ligand-binding antagonists – biochemical, colorimetric, mouse EphA4, primary screen (AID 689); assay type: functional
[5] = target: T2, Endoribonuclease toxin MazF (Escherichia coli K-12, UniProt P0AE70); test: substrate-only fluorescence increase artefacts – biochemical, single-stranded RNase substrate, counter-screen for MazEF activator project, dose response (AID 588502); assay type: functional
T2 sequence (P0AE70 whole entry): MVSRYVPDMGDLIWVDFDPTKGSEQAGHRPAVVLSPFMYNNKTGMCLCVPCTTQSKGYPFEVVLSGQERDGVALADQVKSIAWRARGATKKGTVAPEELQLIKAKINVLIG

[6] = target: T3, Corticotropin-releasing factor receptor 2/Corticotropin-releasing factor-binding protein (Homo sapiens, UniProt P24387+Q13324); test: activators of CRF receptor 2 with binding protein – uHTS hits, confirmation (AID 602473); assay type: functional; conditions: read-out: EC50_Mean
T3 sequence (Q13324 whole entry): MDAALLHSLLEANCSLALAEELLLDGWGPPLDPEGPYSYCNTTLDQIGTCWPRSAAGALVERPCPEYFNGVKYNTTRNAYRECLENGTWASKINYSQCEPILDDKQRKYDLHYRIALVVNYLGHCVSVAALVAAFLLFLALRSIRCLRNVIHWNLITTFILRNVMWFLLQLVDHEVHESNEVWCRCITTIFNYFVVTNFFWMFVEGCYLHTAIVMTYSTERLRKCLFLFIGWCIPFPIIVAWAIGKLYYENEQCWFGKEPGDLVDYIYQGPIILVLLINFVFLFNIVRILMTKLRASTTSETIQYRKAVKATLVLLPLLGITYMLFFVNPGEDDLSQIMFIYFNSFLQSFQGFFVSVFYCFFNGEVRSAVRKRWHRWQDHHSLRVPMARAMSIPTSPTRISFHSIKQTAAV
T3 sequence (P24387 whole entry): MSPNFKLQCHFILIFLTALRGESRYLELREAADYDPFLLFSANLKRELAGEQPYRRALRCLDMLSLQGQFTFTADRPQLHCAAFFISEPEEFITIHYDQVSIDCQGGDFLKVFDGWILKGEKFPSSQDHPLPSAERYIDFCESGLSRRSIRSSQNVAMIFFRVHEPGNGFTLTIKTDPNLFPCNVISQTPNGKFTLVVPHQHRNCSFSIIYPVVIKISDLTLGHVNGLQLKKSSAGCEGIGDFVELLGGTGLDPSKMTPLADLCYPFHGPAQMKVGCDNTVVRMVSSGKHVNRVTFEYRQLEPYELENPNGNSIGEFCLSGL

[7] = target: T2, Endoribonuclease toxin MazF; test: activation of MazEF endoribonuclease cleavage – biochemical, fluorescence, single-stranded RNA substrate, uHTS hits, dose response (AID 588481); assay type: functional
[8] = target: T4, Fatty acid synthase (Homo sapiens, UniProt P49327); test: inhibition of human FAS-TE enzyme activity – biochemical, endpoint fluorescence intensity, uHTS hits, dose response (AID 624327); assay type: functional;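 note: fluorescence from hydrolysis of an O-methyl fluorescein acyl ester substrate by the enzyme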
[9] = Trypanosoma cruzi growth suppression in host cells – NIH3T3 host cells, beta-gal luminescence, confirmation (AID 2044); assay type: functional, cell-based;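 note: intracellular parasites grown in NIH/3T3 mouse fibroblasts as host cells; luminescent beta-galactosidase reporter signal from transgenic T. cruzi replicating inside host cells; inhibitors lower the luminescence signal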
[10] = NIH3T3 cell viability loss – ATP luminescence, mouse fibroblasts, counter-screen, dose response (AID 2010); assay type: functional, cell-based;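 note: cells exposed to compound for about 90 hours before reading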
[11] = cells
[12] = target: T4, Fatty acid synthase; test: inhibition of human FAS-TE enzyme activity – biochemical, kinetic fluorescence intensity, dose response (AID 624326); assay type: functional;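 note: rate of fluorescence rise from hydrolysis of a fluorogenic O-methyl fluorescein ester substrate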
[13] = target: Dual specificity tyrosine-phosphorylation-regulated kinase 1A (Rattus norvegicus, UniProt Q63470); assay type: biochemical, Homo sapiens
[14] = target: Oxysterols receptor LXR-beta (Homo sapiens, UniProt P55055); test: LXR agonists, Gal4 luciferase reporter, dose response, counter-screen for ssDAF-12 agonist project, cell-based, luminescence, HEK293, S. stercoralis campaign (AID 720737); assay type: functional; conditions: read-out: IC50 (the source's name)
[15] = Luminescence-based cell-based high throughput dose response assay to identify activators of the DAF-12 from the parasite S. stercoralis (ssDAF-12).; assay type: functional
[16] = target: FAD-linked sulfhydryl oxidase ALR (Homo sapiens, UniProt P55789); test: ALR-catalysed DTT oxidation blockers – biochemical, H2O2 detection, luminescence, cherry-pick, dose response (AID 493248)
[17] = reduced cellular PGC1a acetyl-lysine signal – cell-based, cherry-picked samples, dose response (AID 720514); assay type: functional;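 note: potency may reflect raised or lowered acetylation signal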

T1 sequence (O95136 whole entry): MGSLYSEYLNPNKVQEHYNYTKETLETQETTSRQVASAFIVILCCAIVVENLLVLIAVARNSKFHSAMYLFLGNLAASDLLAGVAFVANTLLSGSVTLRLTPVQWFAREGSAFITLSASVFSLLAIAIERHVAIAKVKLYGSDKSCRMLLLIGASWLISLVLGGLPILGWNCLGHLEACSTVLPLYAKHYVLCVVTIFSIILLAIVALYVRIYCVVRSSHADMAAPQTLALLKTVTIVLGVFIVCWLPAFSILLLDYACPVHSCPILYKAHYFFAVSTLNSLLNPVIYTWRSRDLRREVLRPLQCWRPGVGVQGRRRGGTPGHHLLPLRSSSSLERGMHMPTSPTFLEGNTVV
T4 sequence (P49327 whole entry): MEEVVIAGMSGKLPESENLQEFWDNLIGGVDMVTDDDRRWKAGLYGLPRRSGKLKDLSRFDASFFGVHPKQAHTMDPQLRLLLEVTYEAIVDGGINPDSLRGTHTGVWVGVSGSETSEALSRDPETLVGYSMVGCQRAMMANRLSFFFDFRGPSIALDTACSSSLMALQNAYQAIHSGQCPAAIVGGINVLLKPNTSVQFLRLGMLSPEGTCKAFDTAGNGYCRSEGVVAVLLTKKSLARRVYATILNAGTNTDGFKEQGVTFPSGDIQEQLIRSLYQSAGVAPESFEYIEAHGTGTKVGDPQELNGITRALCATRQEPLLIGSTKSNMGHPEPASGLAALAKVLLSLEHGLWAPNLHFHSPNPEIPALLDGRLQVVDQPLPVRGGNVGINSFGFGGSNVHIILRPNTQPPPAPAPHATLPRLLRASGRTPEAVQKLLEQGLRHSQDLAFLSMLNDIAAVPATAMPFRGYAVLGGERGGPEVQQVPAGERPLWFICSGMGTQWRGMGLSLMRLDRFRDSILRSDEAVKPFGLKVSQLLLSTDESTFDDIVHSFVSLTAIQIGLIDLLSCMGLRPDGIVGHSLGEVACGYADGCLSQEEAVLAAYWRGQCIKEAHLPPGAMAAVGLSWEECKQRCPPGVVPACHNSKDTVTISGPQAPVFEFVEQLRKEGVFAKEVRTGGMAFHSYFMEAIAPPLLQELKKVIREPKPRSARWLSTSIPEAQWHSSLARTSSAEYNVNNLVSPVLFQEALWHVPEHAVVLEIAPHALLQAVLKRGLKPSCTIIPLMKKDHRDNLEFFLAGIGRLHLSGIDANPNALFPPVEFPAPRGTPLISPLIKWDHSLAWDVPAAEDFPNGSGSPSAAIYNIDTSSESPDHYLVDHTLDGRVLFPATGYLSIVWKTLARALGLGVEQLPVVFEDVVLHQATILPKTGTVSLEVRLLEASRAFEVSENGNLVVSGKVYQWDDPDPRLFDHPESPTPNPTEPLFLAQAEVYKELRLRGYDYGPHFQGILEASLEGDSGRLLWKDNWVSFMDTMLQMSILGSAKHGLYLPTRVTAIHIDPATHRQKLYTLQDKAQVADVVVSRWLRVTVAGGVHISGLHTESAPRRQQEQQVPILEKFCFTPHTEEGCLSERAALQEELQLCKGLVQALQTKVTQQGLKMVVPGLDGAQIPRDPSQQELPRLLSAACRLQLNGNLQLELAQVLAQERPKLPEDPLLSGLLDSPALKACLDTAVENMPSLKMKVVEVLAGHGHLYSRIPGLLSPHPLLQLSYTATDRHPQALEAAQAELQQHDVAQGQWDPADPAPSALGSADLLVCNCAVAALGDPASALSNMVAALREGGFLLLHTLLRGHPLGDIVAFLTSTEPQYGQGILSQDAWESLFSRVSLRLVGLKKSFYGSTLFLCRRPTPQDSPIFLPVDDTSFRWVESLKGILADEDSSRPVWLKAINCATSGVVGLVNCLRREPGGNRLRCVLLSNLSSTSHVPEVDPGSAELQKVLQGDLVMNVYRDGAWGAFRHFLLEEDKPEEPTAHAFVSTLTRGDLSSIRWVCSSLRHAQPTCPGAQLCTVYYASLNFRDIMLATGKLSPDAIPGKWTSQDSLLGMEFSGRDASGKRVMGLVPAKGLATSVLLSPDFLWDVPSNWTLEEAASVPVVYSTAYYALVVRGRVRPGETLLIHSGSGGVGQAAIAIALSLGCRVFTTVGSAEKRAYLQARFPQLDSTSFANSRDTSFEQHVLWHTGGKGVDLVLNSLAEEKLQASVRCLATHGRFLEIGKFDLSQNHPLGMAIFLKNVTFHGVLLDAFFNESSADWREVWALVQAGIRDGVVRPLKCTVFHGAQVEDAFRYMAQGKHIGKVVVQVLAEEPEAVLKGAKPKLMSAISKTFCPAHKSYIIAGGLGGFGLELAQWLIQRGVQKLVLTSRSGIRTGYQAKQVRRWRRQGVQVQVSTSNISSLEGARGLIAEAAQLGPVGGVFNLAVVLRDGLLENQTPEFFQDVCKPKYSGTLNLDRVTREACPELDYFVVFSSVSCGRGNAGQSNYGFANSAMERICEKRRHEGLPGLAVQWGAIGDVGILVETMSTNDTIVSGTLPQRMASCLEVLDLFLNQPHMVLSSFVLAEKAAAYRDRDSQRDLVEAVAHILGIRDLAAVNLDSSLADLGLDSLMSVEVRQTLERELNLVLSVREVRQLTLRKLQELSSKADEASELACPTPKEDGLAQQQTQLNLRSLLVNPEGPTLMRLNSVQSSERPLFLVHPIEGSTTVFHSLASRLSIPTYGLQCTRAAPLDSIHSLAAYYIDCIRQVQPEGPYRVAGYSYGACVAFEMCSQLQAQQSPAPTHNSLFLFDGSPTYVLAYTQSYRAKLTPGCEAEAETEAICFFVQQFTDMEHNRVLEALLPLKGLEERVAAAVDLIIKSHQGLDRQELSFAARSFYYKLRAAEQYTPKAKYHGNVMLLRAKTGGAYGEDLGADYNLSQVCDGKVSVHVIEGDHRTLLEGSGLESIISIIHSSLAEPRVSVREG
FAD-linked sulfhydryl oxidase ALR, sequence (P55789 whole entry): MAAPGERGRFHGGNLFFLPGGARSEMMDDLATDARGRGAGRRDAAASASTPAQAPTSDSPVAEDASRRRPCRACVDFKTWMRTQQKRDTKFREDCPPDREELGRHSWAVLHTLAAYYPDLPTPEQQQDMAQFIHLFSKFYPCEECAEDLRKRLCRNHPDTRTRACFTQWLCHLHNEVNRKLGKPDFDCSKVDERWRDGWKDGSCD
Oxysterols receptor LXR-beta, sequence (P55055 whole entry, the tested form may be a part): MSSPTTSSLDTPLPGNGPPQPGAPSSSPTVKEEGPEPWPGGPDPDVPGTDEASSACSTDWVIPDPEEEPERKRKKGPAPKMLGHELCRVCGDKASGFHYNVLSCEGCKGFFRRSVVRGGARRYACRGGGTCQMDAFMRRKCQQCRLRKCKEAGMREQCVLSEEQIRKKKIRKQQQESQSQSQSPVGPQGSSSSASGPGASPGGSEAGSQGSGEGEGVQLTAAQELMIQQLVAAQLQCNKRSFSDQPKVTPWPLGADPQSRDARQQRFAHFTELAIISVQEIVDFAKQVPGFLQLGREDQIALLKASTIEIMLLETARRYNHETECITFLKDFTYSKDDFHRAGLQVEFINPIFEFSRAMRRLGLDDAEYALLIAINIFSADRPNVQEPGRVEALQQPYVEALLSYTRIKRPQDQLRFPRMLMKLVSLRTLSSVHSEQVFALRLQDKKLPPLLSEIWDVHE
Ephrin type-A receptor 4, sequence (Q03137 whole entry): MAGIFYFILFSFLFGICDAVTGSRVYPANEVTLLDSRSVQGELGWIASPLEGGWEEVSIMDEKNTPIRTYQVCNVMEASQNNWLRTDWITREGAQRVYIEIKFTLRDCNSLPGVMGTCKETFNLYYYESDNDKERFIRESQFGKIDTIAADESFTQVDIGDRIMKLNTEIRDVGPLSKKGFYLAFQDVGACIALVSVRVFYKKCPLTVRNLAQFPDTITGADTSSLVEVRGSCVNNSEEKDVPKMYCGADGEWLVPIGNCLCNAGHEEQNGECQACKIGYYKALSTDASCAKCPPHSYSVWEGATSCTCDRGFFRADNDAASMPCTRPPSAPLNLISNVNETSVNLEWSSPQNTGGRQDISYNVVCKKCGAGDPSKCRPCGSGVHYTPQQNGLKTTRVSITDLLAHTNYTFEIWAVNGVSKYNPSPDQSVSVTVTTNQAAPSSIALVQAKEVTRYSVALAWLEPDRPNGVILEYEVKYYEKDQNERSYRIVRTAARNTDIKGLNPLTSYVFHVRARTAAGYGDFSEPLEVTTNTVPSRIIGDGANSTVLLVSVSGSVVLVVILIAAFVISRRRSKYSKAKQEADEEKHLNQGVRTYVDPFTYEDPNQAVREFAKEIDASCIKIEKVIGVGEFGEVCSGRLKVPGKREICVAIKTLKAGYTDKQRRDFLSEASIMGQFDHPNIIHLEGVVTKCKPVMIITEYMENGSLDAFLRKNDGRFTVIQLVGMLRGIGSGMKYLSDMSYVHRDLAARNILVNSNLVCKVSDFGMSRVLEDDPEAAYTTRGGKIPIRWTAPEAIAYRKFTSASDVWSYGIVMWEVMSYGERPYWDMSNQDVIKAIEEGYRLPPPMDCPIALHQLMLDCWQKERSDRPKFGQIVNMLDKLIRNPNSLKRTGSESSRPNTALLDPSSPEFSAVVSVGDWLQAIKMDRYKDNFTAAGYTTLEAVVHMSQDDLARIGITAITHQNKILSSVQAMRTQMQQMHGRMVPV

With `O=C(CCSc1ccc(Cl)cc1)c1cccs1` the IC50 [1] was > 100 µM (active).

In the case of `Cc1ccc2[nH]c3c(N4CCCCCC4)ncnc3c2c1`, the IC50 [2] was 3.44 µM (active).

In the case of `CCCc1nn(-c2cc(Cl)ccc2OC)c2c1C(=O)CCC2`, the EC50 [3] was > 50 µM (not active).

With `CCCn1nc(-c2ccccc2)c2nc3ccccc3nc21` the IC50 [4] was 10.3 µM (active), the EC50 [5] was 61.7 µM (inactive) and the EC50 [6] was 5.23 µM (active). The EC50 [7] was > 99 µM (inactive).

For `CN(CCO)c1cc(NCCCN2CCC(Cc3ccccc3)CC2)c2nonc2c1[N+](=O)[O-]`, the IC50 [8] was 12.2 µM (active), the EC50 [9] was < 0.1 µM (active) and the EC50 [10] was > 60 µM (not active). The EC50 [11] was 0.215 µM (active) and the IC50 [12] was 6.52 µM (active).

With `O/C(=C\c1nc2ccccc2nc1/C=C(\O)c1ccccc1)c1ccccc1` the IC50 [1] was > 100 µM (active).

In the case of `CN1CCc2nc3sc(C#N)c(N)c3c(-c3cccs3)c2C1`, the AC50 [13] was 3.27 µM (active), the EC50 [9] was < 0.1 µM (active) and the EC50 [10] was > 60 µM (not active). The EC50 [11] was 0.06 µM (active).

For `N#C/C(=C\c1ccc[nH]1)C(=O)Nc1ccccc1F`, the EC50 [14] was > 67.5 µM (inactive) and the IC50 [15] was > 67.5 µM (inactive).

In the case of `Cc1cc(C)c(S(=O)(=O)Nc2ccc(O)cc2)cc1C`, the AC50 [16] was 0.926 µM (active) and the EC50 [3] was > 50 µM (not active).

For `COc1ccc(F)cc1CN1CCN(CC(=O)N2CCc3ccccc32)CC1`, the AC50 [17] was 24.9 µM (active).
